Experimental data taken from patent publication US7807703B2, “Substituted aryl ketones” (Bayer CropScience AG, priority 2002, dated 2010).

Test: log P determination by reversed-phase HPLC (EEC Directive 79/831 Annex V.A8; acidic or neutral mobile phase)
Assay type: physicochemical
Conditions: HPLC reversed-phase C18, 43° C.; acidic range: 0.1% aqueous phosphoric acid, acetonitrile gradient (marked a))
Description: The log P values given in the table were determined in accordance with EEC Directive 79/831 Annex V.A8 by HPLC (High Performance Liquid Chromatography) using a reversed-phase column (C 18). Temperature: 43° C.
(a) Mobile phases for the determination in the acidic range: 0.1% aqueous phosphoric acid, acetonitrile; linear gradient from 10% acetonitrile to 90% acetonitrile—the corresponding measurement results are marked a) in Table 1.
(b) Mobile phases for the determination in the neutral range: 0.01 molar aqueous phosphate buffer solution, acetonitrile; linear gradient from 10% acetonitrile to 90% acetonitrile—the corresponding measurement results are marked b) in Table 1.

Which logP does the source give for `CCONCc1c(S(C)(=O)=O)ccc(C(=O)c2cnn(CC)c2O)c1Cl` [Example 136] here?
The logP was “logP = 1.58^a)”.

Which logP does the source give for `CCONCc1c(Cl)ccc(C(=O)C2C(=O)CCCC2=O)c1Cl` [Example 133] here?
The logP was “logP = 2.75^a)”.

With `CCn1ncc(C(=O)c2ccc(Cl)c(CNOC)c2Cl)c1O` [Example 130] as the compound, how does the logP read?
Its logP is “logP = 1.68^a)”.

With `CCn1nc(C)c(C(=O)c2ccc(S(C)(=O)=O)c(CN(C)OC)c2Cl)c1O` [Example 12] as the compound, how does the logP read?
Its logP is “logP = 1.45^a)”.

With `CCn1ncc(C(=O)c2ccc(Br)c(OCCNS(C)(=O)=O)c2Br)c1O` [Example 17] as the compound, how does the logP read?
The logP was “logP = 1.71^a)”.

Same assay, conditions: HPLC reversed-phase C18, 43° C.; no a)/b) mark printed, mobile phase not given

For `CON(C)Cc1c(Cl)ccc(C(=O)C2C(=O)CCCC2=O)c1Cl` [Example 1, 2-[2,4-dichloro-3-(N-methoxy-N-methylaminomethyl)benzoyl]-1,3-cyclohexanedione], which logP is on record?
Its logP is “logP = 3.04”.

Same assay, conditions: HPLC, reversed-phase C18, 43° C.; acidic range a): 0.1% aqueous phosphoric acid, acetonitrile, linear gradient 10% to 90% acetonitrile

With `COCCON(C)Cc1c(S(C)(=O)=O)ccc(C(=O)C2C(=O)CCCC2=O)c1Cl` [Example 429] as the compound, how does the logP read?
The logP was “(I-2) logP = 2.43^a)”.

Which logP does the source give for `CCn1ncc(C(=O)c2ccc(Cl)c(CN(C)S(C)(=O)=O)c2OC)c1O` [Example 470] here?
Its logP is “logP = 1.86^a)”.

Which logP does the source give for `CCn1ncc(C(=O)c2ccc(Cl)c(CN(C)S(C)(=O)=O)c2Cl)c1O` [Example 456] here?
Its logP is “logP = 1.72^a)”.

With `CN(Cc1c(S(C)(=O)=O)ccc(C(=O)C2C(=O)CCCC2=O)c1Cl)OCC1CCCCO1` (centres unmarked) [Example 438] as the compound, how does the logP read?
Its logP is “(I-2) logP = 3.04^a)”.

With `CCN(Cc1c(Cl)ccc(C(=O)c2cnn(C)c2O)c1Cl)OC` [Example 480] as the compound, how does the logP read?
The logP was “logP = 2.46^a)”.

Which logP does the source give for `CCN(Cc1c(S(C)(=O)=O)ccc(C(=O)C2C(=O)CCCC2=O)c1Cl)S(C)(=O)=O` [Example 467] here?
The logP was “logP = 2.02^a)”.

Which logP does the source give for `CCN(Cc1c(Cl)ccc(C(=O)C2C(=O)CC(C)CC2=O)c1OC)S(C)(=O)=O` (centres unmarked) [Example 474] here?
Its logP is “(I-2) logP = 2.81^a)”.

Which logP does the source give for `Cc1c(C(=O)C2C(=O)CCCC2=O)ccc(Cl)c1OCCNS(C)(=O)=O` [Example 361] here?
Its logP is “logP = 2.13^a)”.

For `CCON(C)Cc1c(S(C)(=O)=O)ccc(C(=O)C2C(=O)CCCC2=O)c1Cl` [Example 424], which logP is on record?
The logP was “logP = 2.82^a)”.

With `CCS(=O)(=O)NCCOc1c(Cl)ccc(C(=O)C2C(=O)CCCC2=O)c1C` [Example 359] as the compound, how does the logP read?
The logP was “logP = 2.33^a)”.

With `CCN(Cc1c(Cl)ccc(C(=O)C2C(=O)CCC(C)(C)C2=O)c1OC)S(C)(=O)=O` (centres unmarked) [Example 465] as the compound, how does the logP read?
Its logP is “(I-2) logP = 3.21^a)”.

For `CCN(Cc1c(S(C)(=O)=O)ccc(C(=O)C2C(=O)CCCC2=O)c1Cl)OC(C)C` [Example 402], which logP is on record?
The logP was “logP = 3.52^a)”.

With `COc1c(C(=O)c2cnn(C)c2O)ccc(Cl)c1CN(C)S(C)(=O)=O` [Example 471] as the compound, how does the logP read?
The logP was “logP = 1.55^a)”.

For `C=CCN(Cc1c(S(C)(=O)=O)ccc(C(=O)C2C(=O)CCCC2=O)c1Cl)S(C)(=O)=O` [Example 460], which logP is on record?
Its logP is “logP = 2.17^a)”.

Which logP does the source give for `CCn1ncc(C(=O)c2ccc(S(C)(=O)=O)c(CN(OC)C3CCCOC3)c2Cl)c1O` (centres unmarked) [Example 412] here?
Its logP is “(I-2) logP = 2.01^a)”.

With `CCN(CC)C(=O)CN(Cc1c(S(C)(=O)=O)ccc(C(=O)c2cnn(C)c2O)c1Cl)OC` [Example 388] as the compound, how does the logP read?
Its logP is “(I-2) logP = 1.59^a)”.

Which logP does the source give for `CCn1ncc(C(=O)c2ccc(S(C)(=O)=O)c(CN(OC)C3CCCC3)c2Cl)c1O` [Example 379] here?
The logP was “(I-2) logP = 2.99^a)”.

With `CON(Cc1c(S(C)(=O)=O)ccc(C(=O)C2C(=O)CCCC2=O)c1Cl)C1CCCOC1` (centres unmarked) [Example 411] as the compound, how does the logP read?
The logP was “(I-2) logP = 2.74^a)”.

With `CCN(CC)C(=O)CN(Cc1c(S(C)(=O)=O)ccc(C(=O)c2cnn(CC)c2O)c1Cl)OC` [Example 389] as the compound, how does the logP read?
Its logP is “(I-2) logP = 1.85^a)”.

With `CS(=O)(=O)c1ccc(C(=O)C2C(=O)CCCC2=O)c(Cl)c1CNOCCOc1ccccc1` [Example 442] as the compound, how does the logP read?
Its logP is “(I-2) logP = 3.07^a)”.

For `CCON(Cc1c(S(C)(=O)=O)ccc(C(=O)c2cnn(CC)c2O)c1Cl)CC1CCOC1` (centres unmarked) [Example 416], which logP is on record?
Its logP is “(I-2) logP = 2.11^a)”.

Which logP does the source give for `CN(Cc1c(Cl)ccc(C(=O)C2C(=O)CCCC2=O)c1Cl)S(C)(=O)=O` [Example 458] here?
The logP was “logP = 2.32^a)”.

Which logP does the source give for `Cc1c(C(=O)C2C(=O)CCCC2=O)ccc(Br)c1OCCNS(C)(=O)=O` [Example 367] here?
The logP was “logP = 2.19^a)”.

Which logP does the source give for `CCn1ncc(C(=O)c2ccc(S(C)(=O)=O)c(CN(OC(C)C)C(C)C)c2Cl)c1O` [Example 421] here?
Its logP is “logP = 3.25^a)”.

With `CCn1ncc(C(=O)c2ccc(S(C)(=O)=O)c(CN(C)OCC3CCCCO3)c2Cl)c1O` (centres unmarked) [Example 439] as the compound, how does the logP read?
The logP was “(I-2) logP = 2.35^a)”.

Which logP does the source give for `CON(Cc1c(S(C)(=O)=O)ccc(C(=O)c2cnn(C)c2O)c1Cl)C(C)C` [Example 371] here?
The logP was “logP = 2.16^a)”.

Which logP does the source give for `COc1c(C(=O)C2C(=O)CCC(C)(C)C2=O)ccc(Cl)c1CN(C)S(C)(=O)=O` (centres unmarked) [Example 473] here?
Its logP is “(I-2) logP = 2.92^a)”.

With `CCON(Cc1c(S(C)(=O)=O)ccc(C(=O)c2cnn(CC)c2O)c1Cl)C(C)C` [Example 392] as the compound, how does the logP read?
Its logP is “logP = 2.89^a)”.

With `CCn1ncc(C(=O)c2ccc(S(C)(=O)=O)c(CN(OC)C(C)C)c2Cl)c1O` [Example 370] as the compound, how does the logP read?
The logP was “logP = 2.52^a)”.

With `CCN(Cc1c(Cl)ccc(C(=O)C2C(=O)CCC(C)(C)C2=O)c1OC)OC` (centres unmarked) [Example 484] as the compound, how does the logP read?
Its logP is “(I-2) logP = 2.30^a)”.

Same assay, conditions: HPLC, reversed-phase C 18, 43° C.; acidic range: 0.1% aqueous phosphoric acid, acetonitrile (marked a) or acidic)

For `COC(=O)c1ccc(S(C)(=O)=O)c(CN(C)S(C)(=O)=O)c1Cl` [VIII-69], which “log P (acidic)” value is on record?
Its value is “logPacidic = 1.65”.

For `COC(=O)c1ccc(S(C)(=O)=O)c(CN(OC)C(C)=O)c1Cl` [VIII-39], which “log P (acidic)” value is on record?
The value was “logPacidic = 1.58”.

With `CCN(Cc1c(S(C)(=O)=O)ccc(C(=O)OC)c1Cl)S(C)(=O)=O` [VIII-72] as the compound, how does the “log P (acidic)” value read?
Its value is “logPacidic = 1.88”.

For `COC(=O)c1ccc(S(C)(=O)=O)c(CN(OC)C2CCSCC2)c1Cl` [VIII-40], which “log P (acidic)” value is on record?
The value was “logPacidic = 3.20”.

Which “log P (acidic)” value does the source give for `COC(=O)c1ccc(S(C)(=O)=O)c(CN(OC(C)C)C(C)C)c1Cl` [VIII-47] here?
Its value is “logPacidic = 3.86”.

Which “log P (acidic)” value does the source give for `COC(=O)c1ccc(S(C)(=O)=O)c(CN(OC)C(C)C2CC2)c1Cl` (centres unmarked) [VIII-37] here?
The value was “logPacidic = 3.58”.

With `COC(=O)c1ccc(S(C)(=O)=O)c(CNOCCOc2ccccc2)c1Cl` [VIII-62] as the compound, how does the “log P (acidic)” value read?
The value was “logPacidic = 2.93”.

Which “log P (acidic)” value does the source give for `CCS(=O)(=O)NCCOc1c(S(C)(=O)=O)ccc(C(=O)OC)c1Cl` [VIII-31] here?
The value was “logPacidic = 1.75”.

Which “log P (acidic)” value does the source give for `COC(=O)c1ccc(S(C)(=O)=O)c(CN(CC2CCOC2)OC)c1Cl` (centres unmarked) [VIII-54] here?
Its value is “logPacidic = 2.35”.

For `CCN(Cc1c(S(C)(=O)=O)ccc(C(=O)OC)c1Cl)OC(C)C` [VIII-46], which “log P (acidic)” value is on record?
Its value is “logPacidic = 3.39”.

Which “log P (acidic)” value does the source give for `COC(=O)c1ccc(S(C)(=O)=O)c(CN(Cc2cccnc2)OC)c1Cl` [VIII-42] here?
Its value is “logPacidic = 1.16”.

With `COC(=O)c1ccc(S(C)(=O)=O)c(CNOC2CCCC2)c1Cl` [VIII-48] as the compound, how does the “log P (acidic)” value read?
Its value is “logPacidic = 2.93”.

Same assay, conditions: HPLC, reversed-phase C 18, 43° C.; mobile phase range not marked

With `CON(Cc1c(S(C)(=O)=O)ccc(C(=O)c2cnn(C)c2O)c1Cl)C(C)C` [Example 345] as the compound, how does the “logP (HPLC, mobile phase not marked)” value read?
Its value is 2.16.

Same assay, conditions: reversed-phase C18 HPLC column; HPLC, reversed-phase C 18, 43° C.; mobile phase range not marked; read-out: log P

Which chromatographic logP does the source give for `CCOC(=O)c1ccc(Cl)c(OCCNC(=O)OC(C)(C)C)c1Cl` [ethyl 2,4-dichloro-3-[2-[(t-butoxycarbonyl)amino]ethoxy]benzoate] here?
The chromatographic logP was 3.79.

Which chromatographic logP does the source give for `CS(=O)(=O)NCCOc1c(Cl)ccc(C(=O)O)c1Cl` [II-2, 2,4-dichloro-3-(2-methylsulphonylaminoethoxy)benzoic acid] here?
The chromatographic logP was 1.36.

With `CCOC(=O)c1ccc(Cl)c(OCCNS(C)(=O)=O)c1Cl` [VIII-2, ethyl 2,4-dichloro-3-(2-methylsulphonylaminoethoxy)benzoate] as the compound, how does the chromatographic logP read?
The chromatographic logP was 2.35.

Which chromatographic logP does the source give for `CON(C)Cc1c(Cl)ccc(C(=O)C2C(=O)CCCC2=O)c1Cl` [Example 1, 2-[2,4-dichloro-3-(N-methoxy-N-methylaminomethyl)benzoyl]-1,3-cyclohexanedione] here?
The chromatographic logP was 3.04.
